Measurements taken from ChEMBL document CHEMBL4673234, “Design, synthesis, biological evaluation and molecular docking of new uracil analogs-1,2,4-oxadiazole hybrids as potential anticancer agents” (Bioorg Med Chem Lett, 2020).

Tests used:
A549 [1] = test: Cytotoxicity against human A549 cells assessed as reduction in cell viability incubated for 48 hrs; format: functional, cell-based; conditions: A549, 48 h
MDA-MB-231 = test: Cytotoxicity against human MDA-MB-231 cells assessed as reduction in cell viability incubated for 48 hrs; format: functional, cell-based; conditions: MDA-MB-231, 48 h
MCF7 = test: Cytotoxicity against human MCF7 cells assessed as reduction in cell viability incubated for 48 hrs; format: functional, cell-based; conditions: MCF7, 48 h
HT-1080 [2] = test: Cytotoxicity against human HT-1080 cells assessed as reduction in cell viability incubated for 48 hrs; format: functional, cell-based; conditions: HT-1080, 48 h
A-375 [3] = test: Cytotoxicity against human A-375 cells assessed as cell viability at 10 uM incubated for 48 hrs (reference value: 100 %); format: functional; conditions: read-out: Activity
A-375 [4] = test: Cytotoxicity against human A-375 cells assessed as cell viability at 5 uM incubated for 48 hrs (reference value: 100 %); format: functional; conditions: read-out: Activity
[5] = target: T1, Caspase-3/Caspase-7 (Homo sapiens) (UniProt P42574+P55210); test: Induction of caspase 3/7 proteolytic activity in human HT-1080 cells assessed as induction of apoptosis by measuring viable cells at 5 uM incubated for 24 hrs by flow cytometry analysis (reference value: 91.39 %); format: cell-based; conditions: filed as activator
HT-1080 [6] = test: Induction of apoptosis in human HT-1080 cells assessed as late apoptotic cells at 5 uM incubated for 24 hrs by AnnexinV-FITC/7-AAD double staining based analysis (reference value: 0.12 %); format: functional
HT-1080 [7] = test: Induction of mitochondrial membrane potential dysfunction in human HT-1080 cells assessed as dead cells at 5 uM incubated for 24 hrs by flow cytometry analysis (reference value: 7.61 %); format: functional
HT-1080 [8] = test: Induction of apoptosis in human HT-1080 cells assessed as necrotic cells at 5 uM incubated for 24 hrs by AnnexinV-FITC/7-AAD double staining based analysis (reference value: 0.73 %); format: functional
HT-1080 [9] = test: Induction of cell cycle arrest in human HT-1080 cells assessed as G0/G1 phase at 5 uM incubated for 24 hrs by flow cytometry analysis (reference value: 63 %); format: functional
A549 [10] = test: Induction of apoptosis in human A549 cells assessed as early apoptotic cells at 5 uM incubated for 24 hrs by AnnexinV-FITC/7-AAD double staining based analysis (reference value: 6.07 %); format: functional
HT-1080 [11] = test: Induction of mitochondrial membrane potential dysfunction in human HT-1080 cells assessed as depolarized dead cells at 5 uM incubated for 24 hrs by flow cytometry analysis (reference value: 0.0 %); format: functional
[12] = target: T1, Caspase-3/Caspase-7 (Homo sapiens); test: Induction of caspase 3/7 proteolytic activity in human HT-1080 cells assessed as induction of apoptosis by measuring apoptotic/dead cells at 5 uM incubated for 24 hrs by flow cytometry analysis (reference value: 4.97 %); format: cell-based
[13] = target: T1, Caspase-3/Caspase-7 (Homo sapiens); test: Induction of caspase 3/7 proteolytic activity in human A549 cells assessed as induction of apoptosis by measuring dead cells at 5 uM incubated for 24 hrs by flow cytometry analysis (reference value: 2.90 %); format: cell-based
A549 [14] = test: Induction of mitochondrial membrane potential dysfunction in human A549 cells assessed as dead cells at 5 uM incubated for 24 hrs by flow cytometry analysis (reference value: 9.92 %); format: functional
[15] = target: T1, Caspase-3/Caspase-7 (Homo sapiens); test: Induction of caspase 3/7 proteolytic activity in human A549 cells assessed as induction of apoptosis by measuring viable cells at 5 uM incubated for 24 hrs by flow cytometry analysis (reference value: 88.91 %); format: cell-based; conditions: filed as activator
A549 [16] = test: Induction of apoptosis in human A549 cells assessed as early apoptotic cells at 5 uM incubated for 24 hrs by AnnexinV-FITC/7-AAD double staining based analysis relative to control; format: functional
[17] = Induction of caspase 3/7 proteolytic activity in human A549 cells assessed as induction of apoptosis at 5 uM incubated for 24 hrs by flow cytometry analysis relative to control; format: functional
A549 [18] = test: Induction of apoptosis in human A549 cells assessed as necrotic cells at 5 uM incubated for 24 hrs by AnnexinV-FITC/7-AAD double staining based analysis (reference value: 1.04 %); format: functional
[19] = target: T1, Caspase-3/Caspase-7 (Homo sapiens); test: Induction of caspase 3/7 proteolytic activity in human HT-1080 cells assessed as induction of apoptosis by measuring dead cells at 5 uM incubated for 24 hrs by flow cytometry analysis (reference value: 2.15 %); format: cell-based
A549 [20] = test: Induction of mitochondrial membrane potential dysfunction in human A549 cells assessed as depolarized live cells at 5 uM incubated for 24 hrs by flow cytometry analysis (reference value: 1.16 %); format: functional
A549 [21] = test: Induction of apoptosis in human A549 cells assessed as late apoptotic cells at 5 uM incubated for 24 hrs by AnnexinV-FITC/7-AAD double staining based analysis (reference value: 3.01 %); format: functional
HT-1080 [22] = test: Induction of cell cycle arrest in human HT-1080 cells assessed as S phase at 5 uM incubated for 24 hrs by flow cytometry analysis (reference value: 10.3 %); format: functional
HT-1080 [23] = test: Induction of apoptosis in human HT-1080 cells assessed as early apoptotic cells at 5 uM incubated for 24 hrs by AnnexinV-FITC/7-AAD double staining based analysis relative to control; format: functional
HT-1080 [24] = test: Induction of apoptosis in human HT-1080 cells at 5 uM incubated for 24 hrs by AnnexinV-FITC/7-AAD double staining based analysis (reference value: 1.34%); format: functional
HT-1080 [25] = test: Induction of apoptosis in human HT-1080 cells assessed as viable cells at 5 uM incubated for 24 hrs by AnnexinV-FITC/7-AAD double staining based analysis (reference value: 97.92 %); format: functional; conditions: read-out: Activity
A549 [26] = test: Induction of apoptosis in human A549 cells at 5 uM incubated for 24 hrs by AnnexinV-FITC/7-AAD double staining based analysis (reference value: 9.08%); format: functional
A549 [27] = test: Induction of apoptosis in human A549 cells assessed as viable cells at 5 uM incubated for 24 hrs by AnnexinV-FITC/7-AAD double staining based analysis (reference value: 89.88 %); format: functional; conditions: read-out: Activity
[28] = target: T1, Caspase-3/Caspase-7 (Homo sapiens); test: Induction of caspase 3/7 proteolytic activity in human A549 cells assessed as induction of apoptosis by measuring apoptotic/dead cells at 5 uM incubated for 24 hrs by flow cytometry analysis (reference value: 5.65 %); format: cell-based
HT-1080 [29] = test: Induction of mitochondrial membrane potential dysfunction in human HT-1080 cells assessed as viable cells at 5 uM incubated for 24 hrs by flow cytometry analysis (reference value: 90.10 %); format: functional; conditions: read-out: Activity
A549 [30] = test: Induction of cell cycle arrest in human A549 cells assessed as S phase at 5 uM incubated for 24 hrs by flow cytometry analysis (reference value: 9.6 %); format: functional
A549 [31] = test: Induction of cell cycle arrest in human A549 cells assessed as G2/M phase at 5 uM incubated for 24 hrs by flow cytometry analysis (reference value: 11.6 %); format: functional
HT-1080 [32] = test: Induction of mitochondrial membrane potential dysfunction in human HT-1080 cells assessed as depolarized live cells at 5 uM incubated for 24 hrs by flow cytometry analysis (reference value: 2.28 %); format: functional
HT-1080 [33] = test: Induction of apoptosis in human HT-1080 cells assessed as early apoptotic cells at 5 uM incubated for 24 hrs by AnnexinV-FITC/7-AAD double staining based analysis (reference value: 1.22 %); format: functional
A549 [34] = test: Induction of mitochondrial membrane potential dysfunction in human A549 cells assessed as depolarized dead cells at 5 uM incubated for 24 hrs by flow cytometry analysis (reference value: 0.39 %); format: functional
A549 [35] = test: Induction of mitochondrial membrane potential dysfunction in human A549 cells assessed as viable cells at 5 uM incubated for 24 hrs by flow cytometry analysis (reference value: 86.64 to 88.54 %); format: functional; conditions: read-out: Activity
A549 [36] = test: Induction of apoptosis in human A549 cells at 5 uM incubated for 24 hrs by AnnexinV-FITC/7-AAD double staining based analysis relative to control; format: functional
HT-1080 [37] = test: Induction of cell cycle arrest in human HT-1080 cells assessed as G2/M phase at 5 uM incubated for 24 hrs by flow cytometry analysis (reference value: 25.6 %); format: functional
[38] = Induction of caspase 3/7 proteolytic activity in human HT-1080 cells assessed as induction of apoptosis at 5 uM incubated for 24 hrs by flow cytometry analysis relative to control; format: functional
[39] = target: T1, Caspase-3/Caspase-7 (Homo sapiens); test: Induction of caspase 3/7 proteolytic activity in human HT-1080 cells assessed as induction of apoptosis by measuring apoptotic cells at 5 uM incubated for 24 hrs by flow cytometry analysis (reference value: 1.48 %); format: cell-based
A549 [40] = test: Induction of cell cycle arrest in human A549 cells assessed as G0/G1 phase at 5 uM incubated for 24 hrs by flow cytometry analysis (reference value: 73.5 %); format: functional
[41] = target: T1, Caspase-3/Caspase-7 (Homo sapiens); test: Induction of caspase 3/7 proteolytic activity in human A549 cells assessed as induction of apoptosis by measuring apoptotic cells at 5 uM incubated for 24 hrs by flow cytometry analysis (reference value: 2.54 %); format: cell-based
HT-1080 [42] = test: Induction of apoptosis in human HT-1080 cells at 5 uM incubated for 24 hrs by AnnexinV-FITC/7-AAD double staining based analysis relative to control; format: functional

T1 sequence (P42574 whole entry, looked up): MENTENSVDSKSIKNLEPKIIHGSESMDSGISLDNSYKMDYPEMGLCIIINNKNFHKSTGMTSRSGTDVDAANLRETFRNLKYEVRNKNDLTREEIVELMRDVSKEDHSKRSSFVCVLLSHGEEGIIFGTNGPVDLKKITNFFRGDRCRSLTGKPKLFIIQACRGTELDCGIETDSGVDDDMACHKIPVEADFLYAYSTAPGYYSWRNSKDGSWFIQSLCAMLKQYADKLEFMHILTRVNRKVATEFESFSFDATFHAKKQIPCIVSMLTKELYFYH
T1 sequence (P55210 whole entry, looked up): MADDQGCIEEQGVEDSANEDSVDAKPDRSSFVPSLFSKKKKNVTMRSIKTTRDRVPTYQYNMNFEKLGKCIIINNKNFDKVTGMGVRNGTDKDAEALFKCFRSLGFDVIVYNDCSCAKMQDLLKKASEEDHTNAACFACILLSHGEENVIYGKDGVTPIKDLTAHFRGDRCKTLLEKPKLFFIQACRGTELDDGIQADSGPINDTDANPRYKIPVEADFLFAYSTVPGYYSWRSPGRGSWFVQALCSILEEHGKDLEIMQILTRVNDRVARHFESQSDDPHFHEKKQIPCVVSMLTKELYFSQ

SMILES: COc1ccc(-c2ccc(-c3nc(-c4ccc(Cn5cc(F)c(=O)[nH]c5=O)cc4)no3)cc2)cc1
- IC50 (A549 [1]): 4.02 µM
- IC50 (MDA-MB-231): 6.52 µM
- IC50 (MCF7): 890 nM
- IC50 (HT-1080 [2]): 980 nM
- viability at 10 µM (A-375 [3]): 23%
- viability at 5 µM (A-375 [4]): 29%

SMILES: COc1ccc(-c2nc(-c3ccc(Cn4ccc(=O)[nH]c4=O)cc3)no2)cc1
- viability at 10 µM (A-375 [3]): 55%
- viability at 5 µM (A-375 [4]): 59%

SMILES: O=c1ccn(Cc2ccc(-c3noc(-c4ccccc4)n3)cc2)c(=O)[nH]1
- viability at 10 µM (A-375 [3]): 72%
- viability at 5 µM (A-375 [4]): 76%

SMILES: O=c1cnn(Cc2ccc(-c3noc(-c4ccccc4)n3)cc2)c(=O)[nH]1
- viability at 10 µM (A-375 [3]): 62%
- viability at 5 µM (A-375 [4]): 100%

SMILES: O=c1[nH]c(=O)n(Cc2ccc(-c3noc(-c4ccc(-c5ccccc5)cc4)n3)cc2)cc1F
- Activity [5]: 68.6%
- Activity (HT-1080 [6]): 9.56%
- Activity (HT-1080 [7]): 16.96%
- Activity (HT-1080 [8]): 1.49%
- Activity (HT-1080 [9]): 59.9%
- Activity (A549 [10]): 9.29%
- Activity (HT-1080 [11]): 0%
- Activity [12]: 19.4%
- Activity [13]: 6.64%
- Activity (A549 [14]): 20.29%
- Activity [15]: 64.3%
- fold change (FC) (A549 [16]): 1.5
- fold change (FC) [17]: 3
- Activity (A549 [18]): 3.26%
- Activity [19]: 9.15%
- Activity (A549 [20]): 1.03%
- Activity (A549 [21]): 14.72%
- IC50 (A549 [1]): 3.12 µM
- Activity (HT-1080 [22]): 13.9%
- fold change (FC) (HT-1080 [23]): 3.5
- Activity (HT-1080 [24]): 13.81%
- viability at 5 µM (HT-1080 [25]): 84.7%
- IC50 (MDA-MB-231): 8.37 µM
- Activity (A549 [26]): 29.01%
- IC50 (MCF7): 1190 nM
- viability at 5 µM (A549 [27]): 72.7%
- Activity [28]: 25.8%
- viability at 5 µM (HT-1080 [29]): 78.7%
- Activity (A549 [30]): 12%
- Activity (A549 [31]): 11.5%
- Activity (HT-1080 [32]): 3.61%
- Activity (HT-1080 [33]): 4.25%
- Activity (A549 [34]): 0.63%
- viability at 5 µM (A549 [35]): 78%
- fold change (FC) (A549 [36]): 3
- IC50 (HT-1080 [2]): 880 nM
- Activity (HT-1080 [37]): 24.1%
- viability at 10 µM (A-375 [3]): 17%
- fold change (FC) [38]: 3
- Activity [39]: 2.87%
- viability at 5 µM (A-375 [4]): 29%
- Activity (A549 [40]): 71.8%
- Activity [41]: 3.25%
- fold change (FC) (HT-1080 [42]): 10

SMILES: COc1cccc2c1C(=O)c1c(O)c3c(c(O)c1C2=O)C[C@@](O)(C(=O)CO)C[C@@H]3O[C@H]1C[C@H](N)[C@H](O)[C@H](C)O1 [DOXORUBICIN]
- IC50 (A549 [1]): 2.67 µM
- IC50 (MDA-MB-231): 3.41 µM
- IC50 (MCF7): 1830 nM
- IC50 (HT-1080 [2]): 930 nM
